# Where two headings read alike, the source gives them in different places.
# B1: ADC1-4: antibody: Cofetuzumab (conjugate, chains of the INN, looked up)
# VH: QVQLVQSGPEVKKPGASVKVSCKASGYTFTDYAVHWVRQAPGKRLEWIGVISTYNDYTYNNQDFKGRVTMTRDTSASTAYMELSRLRSEDTAVYYCARGNSYFYALDYWGQGTSVTVSS
# VL: EIVLTQSPATLSLSPGERATLSCRASESVDSYGKSFMHWYQQKPGQAPRLLIYRASNLESGIPARFSGSGSGTDFTLTISSLEPEDFAVYYCQQSNEDPWTFGGGTKLEIK
# modifications: drug conjugate
# notes: antibody: Cofetuzumab
# B2: ADC1-1: antibody: Cofetuzumab; "ADC Compounds used references" (conjugate, chains of the INN, looked up)
# VH: B1 VH
# VL: B1 VL
# modifications: drug conjugate
# B3: ADC1-11: antibody: Cofetuzumab (conjugate, chains of the INN, looked up)
# VH: B1 VH
# VL: B1 VL
# modifications: drug conjugate
# notes: antibody: Cofetuzumab
# B4: ADC1-12: antibody: Cofetuzumab; "ADC Compounds used references" (conjugate, chains of the INN, looked up)
# VH: B1 VH
# VL: B1 VL
# modifications: drug conjugate
# B5: ADC1-2: antibody: Cofetuzumab (conjugate, chains of the INN, looked up)
# VH: B1 VH
# VL: B1 VL
# modifications: drug conjugate
# notes: antibody: Cofetuzumab
# Tests used:
# HCC1569 = test: Payload cellular killing, 2D; type: cell-based; conditions: HCC1569, 2D (HER3 +++)
# A375 = test: Compounds cellular killing (Cell Titer-Glo, 6 days, 2D); type: cell-based, human; conditions: for cell-killing activity compared with Dxd: A375
# Experimental: (§1) The cell line was grown in a humidified 5% CO2 atmosphere at 37° C., and was regularly tested for the presence of mycoplasma with MycoAlert™ PLUS Mycoplasma Detection Kit (Lonza, LT07-710).
# (§2) Incubation at 37° C., 5% CO2, overnight.
# (§3) Adding the fresh growth-medium containing the varying concentrations of compounds, 50 ul/well.
# (§4) Incubation at 37° C., 5% CO2, 6 days.
# (§5) The cell viability detected by Cell Titer-Glo (Promega, G7573). Add 70 µL/well of CellTiter-Glo® Reagent in each well.
# (§6) Allow the plates to incubate at room temperature for 10 minutes to stabilize luminescent signal.
# (§7) Analyze with Microplate Reader.
# Calu-6 = test: as above; type: cell-based; conditions: for cell-killing activity compared with Dxd: Calu-6
# Experimental: as §1, §2, §3, §4, §5, §6, §7
# MDA-MB-453 = test: Payload cellular killing, 2D; type: cell-based, human; conditions: MDA-MB-453, 2D (HER3 +++)
# Experimental: as §1
# cathepsin B = cathepsin B (Homo sapiens, UniProt P07858); test: Cathepsin B mediated rhodamine release; type: biochemical; conditions: 150 nM, 0.3 unit activated cathepsin B, pH 5.5, 37° C., FIG. 21
# Experimental: CTSB was activated by incubation at ambient temperature for 15 min with 30 mM dithiothreitol and 15 mM EDTA at PH5.5.
# Reaction buffer preparation: 25 mM sodium acetate & 1 mM EDTA, PH5.5.
# Adding 150 nM NAcCys-13 & NAcCys-14 & NAcCys-15 & NAcCys-16 & NAcCys-17 and 0.3 unit activated cathepsin B mixture according to the experiment template.
# The reaction mixtures were incubated at 37° C. immediately in the reader, then start reading using the kinetic set-up described. (TECAN SPARK: excitation/emission: 485/520 nm) (120 cycles, every one min) Gain Manual: 77%
# Data analysis by GraphPad Prism 9 is illustrated in FIG. 21.
# Ovcar3 (PTK7 high) = test: Cellular killing on PTK7 cell lines (Cell-Titer-Glo, 7 days); type: cell-based; conditions: Anti-proliferation
# Experimental: (§8) The plates were incubated for 7 days at 37° C., 5% CO2. Next, 50 μL of Cell-Titer-Glo reagent was added to each well. The mixture was mixed on an orbital shaker for 10 mins to allow cell lysis. Then, the luminescent signal was measured using BMG PheraStar with the luminescent protocol. The inhibition of Ovcar3 and A549 cell lines is illustrated in FIG. 22 and FIG. 23, respectively.
# A549 (PTK7 low) = test: as above; type: cell-based; conditions: Anti-proliferation
# Experimental: as §8
# [1] = ADC hydrophobicity evaluation by HIC (retention time of DAR8 species); type: physicochemical; conditions: HIC method with isopropanol in the mobile phase (values marked *, Method 1)
# Description: ADC Hydrophobicity Evaluation
# ADC with more hydrophobic property would appeared with later retention time from HIC (hydrophobicity interaction column) chromatography. In this invention, […].
# The HIC retention time (HIC RT, here only HIC RT of DAR8 species is listed in the table) can be seen as a measure to evaluate ADC's hydrophobicity.
# [2] = Homo sapiens, Table 28, payload
# [3] = Homo sapiens, Table 28, payload, read-out: Emax
# [4] = Table 28, payload, A375, 2D (Her3 ++)
# [5] = Table 29, payload, A375, 6d, 2D (Her3++)
# [6] = Table 28, payload, Calu-6, 2D (HER3 neg.)
# [7] = Table 29, payload, Clau6, 6d, 2D (Her3 neg)
molecule,measurement,setting,value
"CCc1c2c(nc3ccc(O)cc13)-c1cc3c(c(=O)n1C2)COC(=O)[C@]3(O)CC [SN-38, reference compound]",EC50,HCC1569; [2],5 nM
same,Emax,HCC1569; [3],95%
same,EC50,"A375; Homo sapiens, A-375, Table 28, payload, A375, 2D (Her3 ++)",3.4 nM
same,Emax,"A375; Homo sapiens, A-375, Table 28, payload, A375, 2D (Her3 ++), read-out: Emax",99.9%
same,EC50,"Calu-6; Homo sapiens, Calu-6, Table 28, payload, Calu-6, 2D (HER3 neg.)",2.9 nM
same,Emax,"Calu-6; Homo sapiens, Table 28, payload, Calu-6, 2D (HER3 neg.), read-out: Emax",99.5%
same,EC50,MDA-MB-453; [2],2.4 nM
same,Emax,MDA-MB-453; [3],98.6%
CCOC(=O)Nc1ccc2c(c1)Oc1cc(NC(=O)OCc3ccc(NC(=O)[C@H](CCCNC(N)=O)NC(=O)[C@@H](NC(=O)[C@H](CNS(N)(=O)=O)NC(=O)CCOCCOCCOCCN4C(=O)CC(SC[C@H](NC(C)=O)C(=O)O)C4=O)C(C)C)cc3)ccc1C21OC(=O)c2ccccc21 (stereo partly drawn) [NAcCys-14],"cathepsin B mediated rhodamine release rate, rank",cathepsin B,NAcCys-15˜NAcCys-13 (benchmark)>NAcCys-14>NAcCys-17
CCOC(=O)Nc1ccc2c(c1)Oc1cc(NC(=O)OCc3ccc(NC(=O)[C@H](CCCNC(N)=O)NC(=O)[C@@H](NC(=O)[C@H](CS(=O)(=O)O)NC(=O)CCOCCOCCOCCN4C(=O)CC(SC[C@H](NC(C)=O)C(=O)O)C4=O)C(C)C)cc3)ccc1C21OC(=O)c2ccccc21 (stereo partly drawn) [NAcCys-15],"cathepsin B mediated rhodamine release rate, rank",cathepsin B,NAcCys-15˜NAcCys-13 (benchmark)>NAcCys-14>NAcCys-17
"CC[C@@]1(O)C(=O)OCc2c1cc1n(c2=O)Cc2c-1nc1cc(F)c(C)c3c1c2[C@@H](NC(=O)C(C)(F)CO)CC3 (single isomer, unassigned) [Example 69]",cell-killing activity compared with Dxd,A375,stronger cell-killing activity than Dxd
same,EC50,"A375; Table 21, A375",1.5 nM
same,Emax,"A375; Table 21, A375",99.9%
same,cell-killing activity compared with Dxd,Calu-6,stronger cell-killing activity than Dxd
same,EC50,"Calu-6; Table 21, Calu-6",0.6 nM
same,Emax,"Calu-6; Table 21, Calu-6",98.2%
"CC[C@@]1(O)C(=O)OCc2c1cc1n(c2=O)Cc2c-1nc1cc(F)c(C)c3c1c2[C@@H](NC(=O)C(C)(F)CO)CC3 (single isomer, unassigned) [Isomer 1 of Compounds 68 & 69]",Emax,"HCC1569; Homo sapiens, HCC1569, Table 28, payload, read-out: Emax",92%
same,EC50,"HCC1569; Table 28, payload",3.2 nM
same,Emax,"A375; Homo sapiens, A-375, Table 29, payload, A375, 6d, 2D (Her3++), read-out: Emax",99.9%
same,EC50,A375; [4],4.5 nM
same,EC50,A375; [5],4.5 nM
same,Emax,"Calu-6; Homo sapiens, Calu-6, Table 28, payload, Calu-6, 2D (HER3 neg.), read-out: Emax",98.5%
same,Emax,"Calu-6; Homo sapiens, Calu-6, […], Table 29, payload, Clau6, 6d, 2D (Her3 neg), read-out: Emax",98.5%
same,EC50,Calu-6; [6],1.8 nM
same,EC50,Calu-6; [7],1.8 nM
same,EC50,"MDA-MB-453; Homo sapiens, MDA-MB-453, Table 28, payload",2.8 nM
same,Emax,"MDA-MB-453; Homo sapiens, MDA-MB-453, Table 28, payload, read-out: Emax",97.9%
"CC[C@@]1(O)C(=O)OCc2c1cc1n(c2=O)Cc2c-1nc1cc(F)c(C)c3c1c2[C@@H](NC(=O)C(C)(F)CO)CC3 (single isomer, unassigned) [Example 68]",cell-killing activity compared with Dxd,A375,less potent than Dxd
same,Emax,"A375; Homo sapiens, A-375, Table 21, A375, read-out: Emax",99.9%
same,EC50,"A375; Table 21, A375",4.5 nM
same,cell-killing activity compared with Dxd,Calu-6,less potent than Dxd
same,Emax,"Calu-6; Homo sapiens, Calu-6, Table 21, Calu-6, read-out: Emax",98.5%
same,EC50,"Calu-6; Table 21, Calu-6",1.8 nM
"CCOC(=O)Nc1ccc2c(c1)Oc1cc(NC(=O)OCc3ccc(NC(=O)[C@H](CCCNC(N)=O)NC(=O)[C@@H](NC(=O)CCOCCOCCOCCN4C(=O)CC(SC[C@H](N)C(=O)O)C4=O)C(C)C)cc3)ccc1C21OC(=O)c2ccccc21 (stereo partly drawn) [NAcCys-13, reference compound]","cathepsin B mediated rhodamine release rate, rank",cathepsin B,NAcCys-15˜NAcCys-13 (benchmark)>NAcCys-14>NAcCys-17
"CC[C@@]1(O)C(=O)OCc2c1cc1n(c2=O)Cc2c-1nc1cc(F)c(C)c3c1c2[C@@H](NC(=O)C(C)(F)CO)CC3 (single isomer, unassigned) [Isomer 2 of Compounds 68 & 69]",EC50,"HCC1569; Table 28, payload",0.7 nM
same,Emax,"HCC1569; Table 28, payload",91.6%
same,EC50,A375; [4],1.5 nM
same,Emax,A375; [4],99.9%
same,EC50,A375; [5],1.5 nM
same,Emax,A375; [5],99.9%
same,EC50,Calu-6; [6],0.6 nM
same,Emax,Calu-6; [6],98.2%
same,EC50,Calu-6; [7],0.6 nM
same,Emax,Calu-6; [7],98.2%
same,EC50,"MDA-MB-453; Table 28, payload",1.5 nM
same,Emax,"MDA-MB-453; Table 28, payload",98.6%
CCOC(=O)Nc1ccc2c(c1)Oc1cc(NC(=O)OCc3ccc(NC(=O)[C@H](CCCNC(N)=O)NC(=O)[C@@H](NC(=O)[C@H](CP(=O)(O)O)NC(=O)CCOCCOCCOCCN4C(=O)CC(SC[C@H](NC(C)=O)C(=O)O)C4=O)C(C)C)cc3)ccc1C21OC(=O)c2ccccc21 (stereo partly drawn) [NAcCys-17],"cathepsin B mediated rhodamine release rate, rank",cathepsin B,NAcCys-15˜NAcCys-13 (benchmark)>NAcCys-14>NAcCys-17
B1,Emax,Ovcar3 (PTK7 high),93.45%
same,IC50,Ovcar3 (PTK7 high),0.32 nM
same,Emax,A549 (PTK7 low),20.12%
same,IC50,A549 (PTK7 low),> 200 nM
same,HIC DAR8 RT,[1],14.50* min
B2,Emax,Ovcar3 (PTK7 high),95.76%
same,IC50,Ovcar3 (PTK7 high),0.31 nM
same,Emax,A549 (PTK7 low),38.87%
same,IC50,A549 (PTK7 low),> 200 nM
same,HIC DAR8 RT,[1],14.56* min
B3,Emax,Ovcar3 (PTK7 high),100.9%
same,IC50,Ovcar3 (PTK7 high),2.1 nM
same,Emax,A549 (PTK7 low),26.44%
same,IC50,A549 (PTK7 low),> 200 nM
same,HIC DAR8 RT,[1],14.77* min
B4,Emax,Ovcar3 (PTK7 high),86.04%
same,IC50,Ovcar3 (PTK7 high),39.4 nM
same,Emax,A549 (PTK7 low),5.76%
same,IC50,A549 (PTK7 low),> 200 nM
same,HIC DAR8 RT,[1],13.98* min
B5,Emax,Ovcar3 (PTK7 high),93.47%
same,IC50,Ovcar3 (PTK7 high),0.23 nM
same,Emax,A549 (PTK7 low),34.22%
same,IC50,A549 (PTK7 low),> 200 nM
same,HIC DAR8 RT,[1],14.67* min

# From patent US20250135026A1, “Antibody Drug Conjugates” (BeiGene Switzerland GmbH, priority 2021, published 2025)
